{
  "source": "patent US6649366B2",
  "about": "“Methods and compositions related to modulators of annexin and cartilage homeostasis” (SmithKline Beecham Corporation, priority 1999, dated 2003)",
  "key": {"annexin I": {"molecular_target": "T1, annexin I (Homo sapiens, UniProt P04083)", "T1 sequence (P04083 1-346)": "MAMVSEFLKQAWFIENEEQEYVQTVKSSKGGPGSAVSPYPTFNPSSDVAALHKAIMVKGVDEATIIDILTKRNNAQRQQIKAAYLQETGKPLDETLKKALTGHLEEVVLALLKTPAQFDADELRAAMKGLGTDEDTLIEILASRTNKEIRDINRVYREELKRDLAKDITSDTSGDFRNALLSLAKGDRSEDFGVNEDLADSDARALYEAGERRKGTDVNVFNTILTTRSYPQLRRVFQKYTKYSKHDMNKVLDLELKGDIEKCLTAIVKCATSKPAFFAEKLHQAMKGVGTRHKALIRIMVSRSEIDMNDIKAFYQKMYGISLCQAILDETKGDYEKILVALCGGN", "details": "liposomes; cited from earlier work"}, "annexin III": {"molecular_target": "T2, annexin III (Homo sapiens, UniProt P12429)", "T2 sequence (P12429 1-323)": "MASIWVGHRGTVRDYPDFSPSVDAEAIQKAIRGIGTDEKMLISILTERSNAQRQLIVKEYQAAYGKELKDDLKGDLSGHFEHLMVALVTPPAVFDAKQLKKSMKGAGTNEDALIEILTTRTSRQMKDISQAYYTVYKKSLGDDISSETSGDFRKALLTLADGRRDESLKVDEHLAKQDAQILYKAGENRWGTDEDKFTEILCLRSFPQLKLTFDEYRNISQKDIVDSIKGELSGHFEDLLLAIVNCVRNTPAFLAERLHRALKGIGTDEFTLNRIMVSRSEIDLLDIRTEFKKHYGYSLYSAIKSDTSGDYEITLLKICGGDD", "details": "liposomes; cited from earlier work"}, "annexin V [1]": {"molecular_target": "T3, annexin V (Homo sapiens, UniProt P08758)", "T3 sequence (P08758 1-320)": "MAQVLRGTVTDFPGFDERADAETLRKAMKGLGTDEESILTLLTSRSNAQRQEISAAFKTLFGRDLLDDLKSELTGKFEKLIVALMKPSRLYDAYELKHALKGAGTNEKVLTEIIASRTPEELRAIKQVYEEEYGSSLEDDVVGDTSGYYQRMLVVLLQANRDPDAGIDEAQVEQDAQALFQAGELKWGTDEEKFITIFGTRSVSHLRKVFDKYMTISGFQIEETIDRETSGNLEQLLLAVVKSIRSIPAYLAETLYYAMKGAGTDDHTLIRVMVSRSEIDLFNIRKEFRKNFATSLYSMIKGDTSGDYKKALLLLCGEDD", "details": "liposomes; cited from earlier work"}, "OP-1": {"tested_on": "OP-1", "experiment": "endogenous OP-1 in IL-1β challenged cartilage explants (western blot)", "assay_type": "cell-based, human", "experimental": "Full thickness articular cartilage was dissected from load bearing regions of the femoral condyles of donors with no history of joint disease within 24 hours of death. Samples from men and women (age 50 to 76) were obtained from the Regional Organ Bank of Illinois as described above. After opening the joint, the surface of the cartilage was examined grossly. The appearance of each joint was given a grade based on the Collins scale (30) as modified by Muehleman et al (31).\nTissue explants (3×3 mm) were prepared as described above and were cultured in Dulbecco's modified Eagle's medium/Hams' F12 (1/1) containing 10 ml/L of Insulin Transferrin Selenium A (ITS, Gibco), 25 μg/ml ascorbate, and 50 μg/ml gentamicin. Experimental cultures contained either recombinant human IL-1β (Genzyme), BDA compound in DMSO, or a combination of IL-1β and BDA. ITS containing medium was used to reduce or eliminate serum-contained growth factors that could mask the released OP-1 or OP-1 degradation products and create nonspecific binding of the antibodies. To reach a steady state, cartilage explants were cultured in the absence of IL-1β or BDA for 4 days (or 96 hours) followed by two days (or 48 hours) of culture with IL-1β, BDA or both IL-1β and BDA. DMSO was added to the media control groups to account for a possible effect of DMSO.\nArticular cartilage explants were briefly washed with 0.9% saline, homogenized and extracted in 1 M guanidine hydrochloride in the presence of proteinase inhibitors (0.1 M ε-aminocaproic acid, 0.05 M sodium acetate, 0.005 M EDTA, 0.005 M benzamidine chloride, 0.01 M N-ethylmaleimide, 0.0005 M phenymethanesulfonyl fluoride) at pH 7.4. Samples were extracted for 3 h in the refrigerator, and the extracts, together with the media, were dialyzed against water for 48 hours at 2-8° C., lyophilized and solubilized in sample buffer (0.01 M Tris HCl, pH 6.5, 1% sodium dodecyl sulfate (SDS), 10% glycerol, 0.016% bromphenol blue, 8 M urea, 0.2 M sodium chloride with (for the reduced conditions) or without (for non-reduced conditions) dithioerythritol added (DTT), pH 6.8). Cartilage extracts and media were analyzed by western blotting. All samples were normalized to the protein concentration. Protein concentrations was determined by a colorimetric assay, using BSA as a standard (Pierce, Rockford, Ill.).\nAliquots of samples (30 μg of protein per lane) were analyzed by electrophoresis and immunoblotting. Samples were loaded onto a 12% SDS-polyacrylamide gel (PAGE) in a buffer containing 0.2 M glycine, 25 mM Tris and 3.5 mM SDS. Proteins were transferred from SDS-PAGE gels onto nitrocellulose transfer membranes overnight at 20 V, 4-8° C. in a buffer containing 12 mM Tris (pH 7.4), 6 mM Na acetate, and 0.3 mM EDTA at pH 7.4. Immunoblot analyses was done using OP-1 antibodies. […]"}, "embryonic avian tibias": {"tested_on": "embryonic avian tibias", "experiment": "LPS-induced cartilage degradation in tibia organ cultures", "assay_type": "cell-based, Chick", "experimental": "The purpose of this study was to test the ability of calcium channel blocker BDA to inhibit cartilage degradation in embryonic avian tibias maintained in organ culture in the presence of lipopolysaccharide (LPS). Chick tibiotarsi were removed from 12 day embryos and their tarsal regions removed. These bones were maintained in organ culture as previously described (26-28). Four bones were placed in each well of a 24-well plate and cultured in 1 ml of DMEM supplemented with 50 μg/ml ascorbate and 10 μg/ml LPS (E. coli serotype 0111 :B4, catalog #L-3012, Sigma, St. Louis). The culture medium with fresh supplements was changed every other day. BDA was dissolved in DMSO at a stock concentration of 2 mM. BDA was added to the culture medium on all feeding days and tested at two concentrations, 0.5 and 2 μM. Control cultures received an equivalent concentration of DMSO. The loss of cartilage from the embryonic bones was measured as the release of proteoglycans and collagen (hydroxyproline) into the culture medium. The spent culture medium was collected with each medium change. The proteoglycan content of the culture medium was determined by a dimethyl methylene blue dye-binding assay (25). The hydroxyproline was measured by a colorimetric assay in 96 well plates (29)."}, "annexin V [2]": {"molecular_target": "T3, annexin V", "experiment": "calcium ion flux assay in artificial vesicles containing annexin V (Calcium Green fluorescence)", "assay_type": "biochemical", "details": "180 ug/ml Annexin V, 100 ug/ml CII Peptide where present, 2 hours", "experimental": "Artifical vesicles containing annexin were prepared according to methods known in the art. Specifically, vesicles were prepared by drying down lipids (Avanti Polar Lipids) with nitrogen overlay. Lipids were washed once in ether and further dried under vacuum overnight. Lipids were then sonicated on ice in NMDG Buffer (150 mM N Methyl D Glucamine, and 10 mM Hepes, adjusted to ph 7.4 with HCl, then diluted to 100 mOSM with water) containing 300μM Calcium Green dye (Molecular Probes). Extravesicular dye was removed by Biobead extraction for 20 minutes.\nVesicles were diluted 1:100 in NMDG Buffer, mixed with Annexin V with or without collagen fragments (CII peptide), and incubated for 2 hours. Ca^++ fluxes were measured according to Kaneko et al.. Fluorescence was measured in a 96 well plate using the Flipr plate reader."}},
  "note": "“Also recorded” adds a separate entry of the source.",
  "data": [
    {"compound": "CN1C(=O)CN=C(c2ccccc2)c2ccccc21", "note": "[BDA 250, 1,3-dihydro-1-methyl-5-phenyl-2H-1,4-benzodiazepine-2-one]", "values": [
      {"measurement": "calcium fluxes induced by annexin I", "setting": "annexin I", "result": "inhibited"},
      {"measurement": "calcium fluxes induced by annexin III", "setting": "annexin III", "result": "inhibited"},
      {"measurement": "calcium fluxes induced by annexin V", "setting": "annexin V [1]", "result": "no effect"}
    ]},
    {"compound": "CN1C(=O)C(NC(=O)C(N)Cc2c[nH]c3ccccc23)C=C(c2ccccc2)c2ccccc21", "note": "(centres unmarked) [BDA]", "values": [
      {"measurement": "release of pro-OP-1 domain", "setting": "OP-1; culture media", "result": "enhanced the release of pro-OP-1 domain"},
      {"measurement": "release of pro-OP-1 into culture media", "setting": "OP-1; day 2 of culture", "result": "dramatic release of pro-OP-1"},
      {"measurement": "content of endogenous OP-1 in cartilage", "setting": "OP-1; human cartilage explants, IL-1 culture, 48 hours", "result": "increase in the content of endogenous OP-1; also recorded: increase in the content of endogenous anabolic factor"},
      {"measurement": "processing of endogenous OP-1 from pro- into mature form", "setting": "OP-1; human cartilage under catabolic conditions", "result": "processing of cartilage endogenous OP-1 from pro- into mature form"},
      {"measurement": "LPS induced proteoglycan release to the culture medium", "setting": "embryonic avian tibias; 0.5 μM, compared to DMSO carrier control", "result": "intermediate loss; also recorded: intermediate amount"},
      {"measurement": "LPS induced collagen (hydroxyproline) release", "setting": "embryonic avian tibias; 0.5 μM, feeding day 15", "result": "intermediate degree of collagen release"},
      {"measurement": "LPS induced proteoglycan release to the culture medium", "setting": "embryonic avian tibias; 2 μM", "result": "least release"},
      {"measurement": "LPS induced collagen (hydroxyproline) release", "setting": "embryonic avian tibias; 2 μM, feeding day 15", "result": "least collagen loss"},
      {"measurement": "LPS induced cartilage loss (release of hydroxyproline or proteoglycan)", "setting": "embryonic avian tibias; 0.5 and 2 μM, dose dependence", "result": "dose-dependent inhibition"},
      {"measurement": "LPS induced collagen (hydroxyproline) release", "setting": "embryonic avian tibias; 0.5 and 2 μM, dose dependence", "result": "dose-dependent inhibition"},
      {"measurement": "LPS induced proteoglycan release to the culture medium", "setting": "embryonic avian tibias; 0.5 and 2 μM, dose dependence", "result": "dose-dependent inhibition"},
      {"measurement": "size of the bone and cartilage at the end of the experiments", "setting": "embryonic avian tibias; LPS cultures", "result": "increased size of the bone and cartilage"}
    ]},
    {"compound": "Annexin V: calcium and phospholipid binding protein mixed with vesicles", "values": [
      {"measurement": "Fluorescence (Calcium Signal)", "setting": "annexin V [2]; Lipid Ratio 65% PS/12.5% PC/12.5% PE/5% Chol", "result": 29023},
      {"measurement": "Fluorescence (Calcium Signal)", "setting": "annexin V [2]; Lipid Ratio 70% PS/12.5% PC/12.5% PE", "result": 46454}
    ]}
  ]
}
